The results in this text go back to patent US20250352675A1, “CA-IX TARGETING FLUORESCENT PROBES” (BRACCO IMAGING S.P.A., priority 2022, published 2025).

Structures are written as SMILES.

In series [1] the target is T1, recombinant bovine CAII enzyme (bCAII) (Bos taurus, UniProt P00921).
T1 construct: purchased Sigma-Aldrich; host or cells: E. coli
The series is described as follows: Dansylamide (DNSA) displacement fluorescence assay on carbonic anhydrase catalytic site. The series is classed as binding. The settings on record: 0.25 μM bCAII, 5 μM DNSA, 20 mM Tris pH 8; triplicate; read-out: CAII receptor affinity (KD). The method, then: The binding affinity of the compounds of formula (I) to Carbonic Anhydrase (CA) catalytic site was determined to assess the targeting efficacy of the molecular vectors, even after labeling the targeting ligand with the fluorescent portion of the probe.
Such enzyme in fact is highly available and has a catalytic site with high degree of homology in different carbonic anhydrase isoforms (Aggarwal M. et al., J Enzyme Inhib Med Chem 2013; 28(2): 267-277).
The dissociation constant (Ko) of compounds of formula (I) for bCAII was estimated by performing a fluorescence-based assay, exploiting the drop of fluorescence deriving from the displacement of carbonic anhydrase-bound dansylamide (DNSA) in presence of competitors and was adapted for application in 96-well plates from Wang S C et al., Biochem Mol Biol Educ. 2006, 34(5): 364-368. […] In both cases DNSA is excited at about 320 nm. Thus, excitation of carbonic anhydrase aromatic residues (Trp) at 285 nm generates an emission at 340 nm, that is quenched in presence of bound DNSA. The quenching occurs by FRET (fluorescence resonance energy transfer) to bound DNSA, which is in turn excited, emitting at 460 nm.
Molecules that bind to CA in the same binding site of DNSA, such as sulfonamides or derivatives, competitively displace DNSA from CA. The degree of displacement is function of the affinity of competitors and can be followed through the drop of fluorescence at 460 nm.
In detail, 5-(Dimethylamino)-1-naphthalenesulfonamide (dansylamide, DNSA, Sigma-Aldrich 218898) was reconstituted in 20 mM Tris pH 8, aliquoted and stored at −20° C.; bCAII (recombinant, expressed in E. Coli, Sigma-Aldrich) was divided in aliquots and stored at −20° C.
DNSA fluorescence emission at 462 nm from each well was recorded after excitation at 285 nm (Trp wavelength of excitation) and consequent selective excitation of DNSA bound to bCAII by FRET. Fractional saturation of bCAII was experimentally determined through normalization of fluorescence data between 1 (no compounds) and 0 (maximal DNSA displacement by presence of binding competitors), according to the equation below: […]
where r is fractional saturation, FLobs is the recorded fluorescence intensity, FLmin is the fluorescence intensity recorded at maximal concentration of compounds, and FLmax is fluorescence recorded in absence of compounds.
The KD of CA-binding compounds (=KDcomp) was then derived by mathematical fitting of experimental data according to the equation: […]
Mathematical fitting was performed using Microsoft Excel Solver.
All compounds were tested in triplicate.

Another series deals with HT-29 cells. Nature of the series: Receptor-mediated uptake: competition with 100x excess of acetazolamide in HT-29 cells. The series is classed as cell-based, human. The settings on record: 1 μM, 2 hours at 37° C., relative to uptake without acetazolamide. The protocol: The HT-29 cells were used as in vitro model to assess the cell uptake of the CA-IX targeting compounds of the invention, more specifically whether cellular internalization of compounds occurred after targeting to cell-surface-expressed CA-IX. Cellular uptake was evaluated by flow cytometry. […] Treatment with unconjugated dyes were used to estimate non-specific CA-IX-independent cellular uptake. Cell incubation on ice was used to discriminate the cell-associated fluorescence deriving from internalized and cell-surface associated compounds (37° C.), from the one deriving from solely cell surface-bound compounds (on ice). Treatment of HT-29 cells, grown in 24-well plates, was performed by rinsing cells in DPBS and then by incubation with treatment solutions, for the indicated times and temperatures, in the dark. At the end of treatment, cells were rinsed 3 times with cold DPBS, and detached from the plate with StemPro® Accutase® Cell Dissociation Reagent, collected in 1.5 mL tubes after dilution in DPBS and centrifuged (5 minutes, 350 RCF, 4° C.). The supernatant was then discarded, and the cell pellet was resuspended in 300 μL of cold FACS buffer, or in a suitable volume in order to obtain no more than 1,000 recorded events per μL during FACS analysis. Samples were analyzed with the flow cytometer Accuri™ C6 (BD Biosciences) using the 640 nm excitation laser and the emission 780/60 nm filter. At least 15000 valid events were collected for each sample. At the end of analysis, each sample was plotted in histograms, being X the fluorescence intensity (FL4-A) in log scale and Y the counts. Usually, a gaussian distribution of the cell population was observed. The data retrieved were the mean fluorescence of each population, considered the fluorescence intensity value of the corresponding sample. Independent replicates were performed for each experimental condition. Normalized cell-associated fluorescence was calculated with the following formula: […]

Series [2] is described as follows: Optical characterization (excitation/emission maxima, molar extinction coefficient). The following applies: in water. The series is classed as physicochemical.
Series [3] is described as follows: Ex vivo biodistribution, organ-to-muscle ratio. The settings on record: 1 nmol/mouse, 24 hours after administration. The series is classed as in vivo, mice. The method, then:
The ex vivo biodistribution of the representative compounds 1, 2 and 3 and of the reference compound HF-1 (at 1 nmol/mouse) was evaluated in HT-29 excised tumors and tissues at the end of the in vivo OI sessions 24 hours post intravenous administration. At the end of the in vivo experiment, animals were euthanized by overdose of gaseous anesthesia followed by cervical dislocation. Tumor tissue, muscle, and other organs of interest were removed for ex vivo fluorescent signal measurements. The fluorescence signal intensity was measured by the IVIS Spectrum system. Regions of interest (ROIs) were drawn around each organ and tumor using the Living Image Software (PerkinElmer) and evaluating signal intensity in the tissues (expressed as Average Radiant Efficiency). The ratio between the fluorescence signal in the organs and tumor was then calculated to assess the contrast to hind limb muscle (representing the background).
Moreover, FIG. 6 (b) and Table VIII show the accumulation and distribution of the fluorescent probes in the dissected organs, reporting the ex vivo values of organs-to-muscle ratio from samples collected at 24 hours after the administration of representative compounds 1, 2 and 3 and of the reference compound HF-1 (1 nmol/mouse).

T1 sequence (P00921 whole entry): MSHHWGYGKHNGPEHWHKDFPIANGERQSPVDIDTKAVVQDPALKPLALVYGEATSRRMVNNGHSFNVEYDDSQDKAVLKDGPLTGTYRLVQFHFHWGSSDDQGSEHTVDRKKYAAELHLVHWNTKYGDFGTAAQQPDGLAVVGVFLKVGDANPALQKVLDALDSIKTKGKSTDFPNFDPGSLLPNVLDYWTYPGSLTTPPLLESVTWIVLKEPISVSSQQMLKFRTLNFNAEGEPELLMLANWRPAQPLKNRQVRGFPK

The term Kd denotes a measure of binding affinity in units of concentration. On to `CC1(C)C(/C=C/C=C/C=C/C=C2/N(CCCCS(=O)(=O)O)c3ccc(C(=O)NC[C@H](O)[C@@H](O)[C@H](O)[C@H](O)CO)cc3C2(C)C)=[N+](CCCCS(=O)(=O)[O-])c2ccc(C(=O)NCCCCCCCC(=O)Nc3nnc(S(N)(=O)=O)s3)cc21` [Compound 1], for which the Kd in series [1] is 6.2 ± 0.6 nM. Moreover, in the series with HT-29 cells, the “% uptake in presence of 100x excess of acetazolamide” value (shortened to “% uptake in presence”) worked out at 16.4 ± 1.9%. This compound showed a molar extinction coefficient (ε) in series [2] of 240000 M⁻¹ cm⁻¹. In series [3], the “Organ-to-muscle ratio, intestine” value is recorded as 1.5 ± 0.3; the “Organ-to-muscle ratio, kidney” value came to 8.3 ± 1.9; the “Organ-to-muscle ratio, liver” value was found to be 3.3 ± 1.1; the “Organ-to-muscle ratio, skin” value is 1.1 ± 0.2. In series [3], the “Organ-to-muscle ratio, spleen” value is 0.5 ± 0.1 and the “Organ-to-muscle ratio, stomach” value came out at 11.3 ± 3.2.
Turning to `CC1(C)C(/C=C/C=C/C=C/C=C2/N(CCCCS(=O)(=O)O)c3ccc(S(=O)(=O)O)cc3C2(C)C)=[N+](CCCCS(=O)(=O)[O-])c2ccc(C(=O)NCCCCCCCC(=O)Nc3nnc(S(N)(=O)=O)s3)cc21` [Compound 2], in series [1], the dissociation constant (Kd) stood at 3.7 ± 0.3 nM. Moreover, the “% uptake in presence” value with HT-29 cells is 28.4 ± 2.2%. For the same compound, the molar extinction coefficient (ε) in series [2] turned out to be 260000 M⁻¹ cm⁻¹. Further, in series [3], the “Organ-to-muscle ratio, intestine” value turned out to be 1.2 ± 0.1; the “Organ-to-muscle ratio, kidney” value turned out to be 4.0 ± 1.7; the “Organ-to-muscle ratio, liver” value was determined as 2.7 ± 0.4; the “Organ-to-muscle ratio, skin” value was 1.6 ± 0.4. In series [3], the “Organ-to-muscle ratio, spleen” value worked out at 1.0 ± 0.1 and the “Organ-to-muscle ratio, stomach” value came out at 7.1 ± 1.2.
For the compound `CC1(C)C(/C=C/C2=C(Oc3ccc(S(=O)(=O)O)cc3)C(=C/C=C3/N(CCCCS(=O)(=O)O)c4ccc(S(=O)(=O)O)cc4C3(C)C)/CCC2)=[N+](CCCCS(=O)(=O)[O-])c2ccc(C(=O)NCCCCCCCC(=O)Nc3nnc(S(N)(=O)=O)s3)cc21` [Compound 3], the Kd in series [1] came to 3.8 ± 0.5 nM. In the series with HT-29 cells, the “% uptake in presence” value turned out to be 18.1 ± 11.5%. In series [2], this compound showed a molar extinction coefficient (ε) of 240000 M⁻¹ cm⁻¹. Besides, in series [3], the “Organ-to-muscle ratio, intestine” value worked out at 1.5 ± 0.2; the “Organ-to-muscle ratio, kidney” value stood at 4.7 ± 1.6; the “Organ-to-muscle ratio, liver” value amounted to 3.1 ± 0.6; the “Organ-to-muscle ratio, skin” value was found to be 1.0 ± 0.1. Moreover, in series [3], the “Organ-to-muscle ratio, spleen” value is given as 1.0 ± 0.1 and the “Organ-to-muscle ratio, stomach” value is 3.5 ± 0.3.
